Assay results published in patent US8232274B2, “Pyridazinone derivatives useful as glucan synthase inhibitors” (Albany Molecular Research, Inc., priority 2007, dated 2012).
pIC50: −log10 of the molar value.

Legend:
glucan synthase [1] = target: T1, glucan synthase (Candida albicans, UniProt O13428); assay: β(1,3) glucan synthase assay, C. albicans BWP17 membrane preparation (IC50); format: biochemical; conditions: in vitro fungal enzyme activity assay, read-out: IC50 (μg/mL) Candida albicans (converted)
T1 construct: glucan synthase sources (2 μL permeabilized PM503 cells, or 3 μL membrane preparations from either PM503, BWP17, or ND158); endogenous in cells; host or cells: C. albicans strain BWP17, 100,000 g membrane fraction
Experimental: (§1) β(1,3) Glucan Synthase Assay:
(§2) 2. Preparation of Membrane Fraction of Yeast Cells
(§3) The protocol was modified from Douglas et al. (Journal of Bacteriology, 176, 5686-5696, 1994). For the preparation of S. cerevisiae and C. albicans membrane fractions, 1 liter of YPD supplemented with 0.02 mg/mL adenine and 0.08 mg/mL uracil was inoculated with 10 mL starter culture of PM503 (OD600=4) or the C. albicans strain BWP17 (OD600=12) in the same medium and grown at 30° C. until OD600 reached about 1. A. fumigatus (stain ND158) membranes were prepared by first preparing a spore suspension from agar slants by adding 6 mL of sterile saline, 0.1% Tween-20 solution to each slant, and resuspending by pipetting and scraping. The spore suspensions were used to inoculate two 200 mL flasks containing Sabouraud dextrose broth media. Cultures were incubated at 37° C., 250 rpm for ˜8 hrs. All cells, S. cerevisiae, C. albicans or A. fumigatus were harvested by centrifugation at 5,300 g at 4° C. for 40 minutes. After washing with 100 mL of breakage buffer (0.1 M KPi, pH 7.0, 1 mM EDTA, 1 mM DTT), the cell pellet was resuspended in 50 ml ice-cold breakage buffer. The mixture was transferred to a bead-beater chamber packed in ice (BioSpec Products, Bartlesville, Okla.). To each 50 mL sample was added 50 g of acid-washed glass beads ([…], Sigma). Cells were disrupted using 12×20 second pulses with 2 min-cooling intervals. Cell debris was removed by centrifugation at 3,000 g for 20 minutes at 4° C., and the supernatant was collected and centrifuged at 100,000 g for 1 hour at 4° C. to pellet the membrane fraction. The pellet was resuspended in 5 mL of ice-cold breakage buffer containing 25% glycerol, homogenized with a Dounce tissue homogenizer and stored at −80° C. in small aliquots.
(§4) 3. Glucan Synthase Assay and Compound Screening
The assay was performed according to Mo et at (Journal of Biological Chemistry, 269, 31267-31274, 1994) and Taft et al. (The Journal of Antibiotics, 47, 1001-1009, 1994), in a 96-well Optiplate (PerkinElmer). To each well was added 3 μL 10× compound stock (in 100% DMSO), or 3 μL of 30 μg/mL caspofungin in 100% DMSO (as positive control), or 3 μL 100% DMSO (as negative control), followed by the addition of appropriate amount of glucan synthase sources (2 μL permeabilized PM503 cells, or 3 μL membrane preparations from either PM503, BWP17, or ND158). The reaction was initiated by adding 25 μL reaction buffer (0.6 mM UDP-Glucose 0.6 nCi [U-^14C]DUP-Glucose (327 mCi/mmol, Amersham Bioscience), 20 μM GTP-γ-S, 25 mM NaF, 7.5 mg/mL BSA, 8% glycerol in 75 mM Tris-HCl, pH 7.5). The plate was incubated on a shaker for 1.5 hour at room temperature before being quenched with 250 μL 1% TCA (Trichloroacetic Acid). The quenched reaction was mixed by pipetting, and immediately transferred to a 96-well filter plate (Glass fiber B on 0.65 μm hydrophilic durapore membrane, Millipore) pre-wetted with wash buffer (5% TCA, 60 mM NaPPi). The glucan product was retained on the filter membrane by applying vacuum to the plate using a MultiScreen Resist Vacuum Manifold (Millipore). The filter plate was further washed 4 times with 200 μL wash buffer. The plate was dried at 50° C. for 30 minutes. 100 μL of Microscint-0 (PerkinElmer) was added to each well, and plate was counted in a TopCount NXT plate reader (PerkinElmer).
Dose-response curves were plotted from inhibition data generated. IC50 was determined by fitting the CPM versus the Concentration of the test compound plot with the following equation (4-parameter logistic model, ID Business Solutions XLfit 4.2).

glucan synthase [2] = target: T2, glucan synthase (Saccharomyces cerevisiae, UniProt P38631); assay: β(1,3) glucan synthase assay, S. cerevisiae PM503 permeabilized cells or membrane preparation (IC50); format: biochemical
T2 construct: glucan synthase sources (2 μL permeabilized PM503 cells, or 3 μL membrane preparations from either PM503, BWP17, or ND158); endogenous in cells; host or cells: S. cerevisiae strain PM503, permeabilized cells or 100,000 g membrane fraction
Experimental: as §1
1. Preparation of Permeabilized Saccharomyces cerevisiae Cells.
Permeabilization of yeast cells was performed according to Crotti et al. (Analytical Biochemistry, 292, 8-16, 2001) with some modifications. A 10 ml-starter culture of the S. cerevisiae strain in YPD medium (1% yeast extract, 2% bacto-peptone, 2% dextrose) with OD600=3-4 was used to inoculate 1 liter of YPD. The culture was grown at 30° C. until […]. Cells were collected by centrifugation (5,300 g for 15 min at 4° C.) and resuspended in buffer (40 mM EDTA, 100 mM β-mercaptoethanol) at 1 g of cell pellet/3.5 ml buffer. The cell suspension was shaken for 30 min at 30° C., followed by centrifugation at 12,000 g for 10 min at 4° C. The cell pellet was washed with 5 ml 0.8 M sorbitol and resuspended in 6.8 ml of 2.9 mM citric acid, 11.3 mM dibasic sodium phosphate, 1 mM EDTA, 0.8 M sorbitol, with constant shaking at 30)C for 30 min. After centrifugation at 12,000 g for […] at 4° C., the pellet was resuspended in 31.3 ml 50 mM Tris-HCl, pH 7.0, and incubated on ice for 5 min. The mixture was then centrifuged at 12,000 g for 10 min at 4 AC, and the pellet was resuspended in 1 ml of 50 mM Tris-HCl and 33% glycerol, pH 7.5. The permeabilized cell preparation was stored at […] in aliquots.
as §2, §3, §4
The assay was performed according to Mo et at (Journal of Biological Chemistry, 269, 31267-31274, 1994) and Taft et al. (The Journal of Antibiotics, 47, 1001-1009, 1994), in a 96-well Optiplate (PerkinElmer). To each well was added 3 μL 10× compound stock (in 100% DMSO), or 3 μL of 30 μg/mL caspofungin in 100% DMSO (as positive control), or 3 μL 100% DMSO (as negative control), followed by the addition of appropriate amount of glucan synthase sources (2 μL permeabilized PM503 cells, or 3 μL membrane preparations from either PM503, BWP17, or ND158). The reaction was initiated by adding 25 μL reaction buffer (0.6 mM UDP-Glucose 0.6 nCi [U-^14C]DUP-Glucose (327 mCi/mmol, Amersham Bioscience), 20 μM GTP-γ-S, 25 mM NaF, 7.5 mg/mL BSA, 8% glycerol in 75 mM Tris-HCl, pH 7.5). […]

T2 sequence (P06780 1-206): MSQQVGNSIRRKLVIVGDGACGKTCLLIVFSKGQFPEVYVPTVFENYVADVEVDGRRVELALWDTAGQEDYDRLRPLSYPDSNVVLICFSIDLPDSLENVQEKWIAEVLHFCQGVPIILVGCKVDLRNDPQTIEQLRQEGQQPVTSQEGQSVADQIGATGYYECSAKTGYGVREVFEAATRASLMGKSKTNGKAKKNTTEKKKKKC
T2 sequence (P38631 whole entry): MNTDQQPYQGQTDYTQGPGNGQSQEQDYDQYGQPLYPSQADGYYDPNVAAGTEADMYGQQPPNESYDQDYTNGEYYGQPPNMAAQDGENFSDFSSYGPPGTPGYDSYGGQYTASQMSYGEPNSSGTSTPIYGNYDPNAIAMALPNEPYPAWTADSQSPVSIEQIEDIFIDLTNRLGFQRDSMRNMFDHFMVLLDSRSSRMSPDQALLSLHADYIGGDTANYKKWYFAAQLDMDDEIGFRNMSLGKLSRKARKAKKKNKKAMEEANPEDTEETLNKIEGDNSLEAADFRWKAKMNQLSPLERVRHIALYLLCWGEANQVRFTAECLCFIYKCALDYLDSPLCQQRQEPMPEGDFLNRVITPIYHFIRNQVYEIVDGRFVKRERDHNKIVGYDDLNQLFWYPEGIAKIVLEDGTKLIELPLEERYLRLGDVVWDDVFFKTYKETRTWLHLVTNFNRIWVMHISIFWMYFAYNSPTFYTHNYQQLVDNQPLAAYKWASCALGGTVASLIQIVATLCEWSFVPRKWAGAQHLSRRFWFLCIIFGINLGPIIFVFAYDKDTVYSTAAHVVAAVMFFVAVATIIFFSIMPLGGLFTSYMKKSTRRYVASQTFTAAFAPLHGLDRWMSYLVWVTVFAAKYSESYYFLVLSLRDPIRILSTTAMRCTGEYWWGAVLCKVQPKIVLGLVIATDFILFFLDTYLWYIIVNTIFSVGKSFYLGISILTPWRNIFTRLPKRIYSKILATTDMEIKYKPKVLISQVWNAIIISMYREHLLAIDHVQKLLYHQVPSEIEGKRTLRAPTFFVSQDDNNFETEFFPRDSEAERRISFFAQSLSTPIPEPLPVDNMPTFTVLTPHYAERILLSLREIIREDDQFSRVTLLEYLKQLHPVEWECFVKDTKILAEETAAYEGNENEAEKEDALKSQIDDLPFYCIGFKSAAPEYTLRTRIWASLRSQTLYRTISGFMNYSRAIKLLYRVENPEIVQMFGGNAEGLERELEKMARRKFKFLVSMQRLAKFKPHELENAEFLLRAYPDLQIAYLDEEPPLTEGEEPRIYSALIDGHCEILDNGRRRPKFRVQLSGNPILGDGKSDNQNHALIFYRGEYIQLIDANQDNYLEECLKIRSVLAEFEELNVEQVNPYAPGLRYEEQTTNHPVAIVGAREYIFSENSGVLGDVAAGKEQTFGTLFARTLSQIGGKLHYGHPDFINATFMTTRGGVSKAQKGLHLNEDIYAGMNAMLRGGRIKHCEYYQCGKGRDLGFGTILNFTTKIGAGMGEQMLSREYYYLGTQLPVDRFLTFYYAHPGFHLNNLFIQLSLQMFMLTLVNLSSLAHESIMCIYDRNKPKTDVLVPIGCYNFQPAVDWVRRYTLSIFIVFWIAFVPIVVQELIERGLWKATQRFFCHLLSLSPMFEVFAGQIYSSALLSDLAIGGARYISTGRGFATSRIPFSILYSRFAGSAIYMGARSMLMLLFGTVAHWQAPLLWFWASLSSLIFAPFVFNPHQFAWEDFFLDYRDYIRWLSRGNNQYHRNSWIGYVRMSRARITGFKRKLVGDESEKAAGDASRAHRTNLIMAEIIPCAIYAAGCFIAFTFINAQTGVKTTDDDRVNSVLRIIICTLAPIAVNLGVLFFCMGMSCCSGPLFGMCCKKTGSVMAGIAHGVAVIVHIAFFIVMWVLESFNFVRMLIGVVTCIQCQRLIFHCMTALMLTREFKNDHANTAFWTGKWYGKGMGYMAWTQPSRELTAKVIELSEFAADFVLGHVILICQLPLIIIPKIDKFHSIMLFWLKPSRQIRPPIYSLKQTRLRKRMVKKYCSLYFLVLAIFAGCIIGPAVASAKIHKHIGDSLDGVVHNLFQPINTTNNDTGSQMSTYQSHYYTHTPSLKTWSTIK
T1 sequence (O13428 1-1897): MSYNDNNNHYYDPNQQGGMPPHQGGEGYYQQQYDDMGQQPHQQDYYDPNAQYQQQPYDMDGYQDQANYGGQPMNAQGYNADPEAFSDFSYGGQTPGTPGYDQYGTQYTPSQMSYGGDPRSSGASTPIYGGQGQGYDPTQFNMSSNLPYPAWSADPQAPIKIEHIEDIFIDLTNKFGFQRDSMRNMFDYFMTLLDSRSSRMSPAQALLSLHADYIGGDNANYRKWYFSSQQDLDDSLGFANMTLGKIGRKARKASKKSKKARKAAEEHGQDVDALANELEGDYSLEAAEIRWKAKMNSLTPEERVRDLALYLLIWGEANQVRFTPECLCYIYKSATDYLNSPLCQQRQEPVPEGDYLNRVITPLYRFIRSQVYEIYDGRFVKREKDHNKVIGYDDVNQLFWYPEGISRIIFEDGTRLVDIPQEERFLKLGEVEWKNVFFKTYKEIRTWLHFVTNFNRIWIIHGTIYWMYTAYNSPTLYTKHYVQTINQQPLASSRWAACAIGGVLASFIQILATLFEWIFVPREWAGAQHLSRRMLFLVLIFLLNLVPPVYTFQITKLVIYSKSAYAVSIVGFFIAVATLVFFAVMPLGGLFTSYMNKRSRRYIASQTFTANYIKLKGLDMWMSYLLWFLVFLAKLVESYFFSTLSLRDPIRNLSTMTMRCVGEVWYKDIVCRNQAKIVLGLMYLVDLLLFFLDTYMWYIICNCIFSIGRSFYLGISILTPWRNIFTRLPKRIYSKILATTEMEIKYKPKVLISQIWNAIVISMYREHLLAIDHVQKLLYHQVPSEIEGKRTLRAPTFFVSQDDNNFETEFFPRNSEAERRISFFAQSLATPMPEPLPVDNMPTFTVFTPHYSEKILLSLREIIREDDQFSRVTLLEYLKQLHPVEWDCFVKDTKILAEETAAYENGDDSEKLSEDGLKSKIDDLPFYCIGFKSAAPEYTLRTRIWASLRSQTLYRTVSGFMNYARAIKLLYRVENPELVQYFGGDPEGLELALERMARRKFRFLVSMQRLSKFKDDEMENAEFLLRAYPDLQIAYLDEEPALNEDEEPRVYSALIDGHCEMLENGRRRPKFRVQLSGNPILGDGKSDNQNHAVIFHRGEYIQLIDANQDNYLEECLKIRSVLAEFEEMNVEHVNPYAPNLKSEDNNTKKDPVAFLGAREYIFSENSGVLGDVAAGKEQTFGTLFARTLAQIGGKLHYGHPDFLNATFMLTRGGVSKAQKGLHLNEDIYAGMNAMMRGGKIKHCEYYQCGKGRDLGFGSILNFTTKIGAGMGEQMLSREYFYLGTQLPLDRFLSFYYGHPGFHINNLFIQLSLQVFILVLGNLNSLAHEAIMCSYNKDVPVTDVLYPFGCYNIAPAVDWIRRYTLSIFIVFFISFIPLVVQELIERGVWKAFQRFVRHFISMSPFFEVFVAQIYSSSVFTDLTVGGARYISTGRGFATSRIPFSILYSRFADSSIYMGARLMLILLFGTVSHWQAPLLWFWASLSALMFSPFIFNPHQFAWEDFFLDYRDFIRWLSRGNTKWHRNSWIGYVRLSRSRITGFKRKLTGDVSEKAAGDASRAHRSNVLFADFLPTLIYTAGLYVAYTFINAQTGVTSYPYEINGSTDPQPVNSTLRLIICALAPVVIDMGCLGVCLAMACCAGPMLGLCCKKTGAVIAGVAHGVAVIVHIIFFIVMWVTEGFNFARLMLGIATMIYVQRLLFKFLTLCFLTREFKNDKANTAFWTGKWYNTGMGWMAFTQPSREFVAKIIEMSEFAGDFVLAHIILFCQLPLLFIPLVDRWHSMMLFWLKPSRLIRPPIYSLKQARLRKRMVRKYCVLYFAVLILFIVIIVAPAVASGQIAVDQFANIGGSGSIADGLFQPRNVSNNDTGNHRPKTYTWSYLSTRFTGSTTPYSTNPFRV
T1 sequence (O42825 1-195 partner limits assumed): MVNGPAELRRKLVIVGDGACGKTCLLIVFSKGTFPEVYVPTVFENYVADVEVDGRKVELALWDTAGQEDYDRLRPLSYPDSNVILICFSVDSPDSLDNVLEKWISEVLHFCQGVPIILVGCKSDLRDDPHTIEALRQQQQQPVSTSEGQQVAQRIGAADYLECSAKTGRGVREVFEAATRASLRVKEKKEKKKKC

For `CC1(COc2c(N3CCN(S(=O)(=O)Cc4ccccc4)CC3)cnn(-c3cccc(Cl)c3)c2=O)CC1` [1035Z], the IC50 (glucan synthase [1]) was 0.0567 µM and the pIC50 (glucan synthase [2]) was 7.12.
Compound `O=c1c(OCC2(CF)CC2)c(N2CCN(S(=O)(=O)Cc3ccccc3)CC2)cnn1-c1cccc(Cl)c1` [1122Z] has an IC50 (glucan synthase [1]) of 0.0548 µM and a pIC50 (glucan synthase [2]) of 7.26.
For `O=c1c(OC2Cc3ccccc3CC2F)c(N2CCN(S(=O)(=O)CF)CC2)cnn1-c1cc(F)cc(F)c1` (stereo not drawn) [1267Z], the IC50 (glucan synthase [1]) was 0.633 µM and the pIC50 (glucan synthase [2]) was 6.70.
With `O=c1c(OC2CCCC2)c(N2CCN(S(=O)(=O)Cc3ccccc3)CC2)cnn1-c1cccc(F)c1` [1402Z] the IC50 (glucan synthase [1]) was 0.117 µM and the pIC50 (glucan synthase [2]) was 7.41.
In the case of `Nc1ccc(CS(=O)(=O)N2CCN(c3cnn(-c4cc(F)cc(F)c4)c(=O)c3OC3CCC(F)C3)CC2)cc1` (stereo not drawn) [1529Z-6], the IC50 (glucan synthase [1]) was 0.106 µM and the pIC50 (glucan synthase [2]) was 7.45.
Compound `Nc1ccc(CS(=O)(=O)N2CCN(c3cnn(-c4cccc(Cl)c4)c(=O)c3OCc3ccccc3)CC2)cc1` [1529Z-19] has an IC50 (glucan synthase [1]) of 0.23 µM and a pIC50 (glucan synthase [2]) of 7.15.
In the case of `CC1(COc2c(N3CCN(S(=O)(=O)Cc4ccc(Br)cc4)CC3)cnn(-c3cc(F)cc(F)c3)c2=O)CC1` [1529Z-33], the IC50 (glucan synthase [1]) was 0.0328 µM and the pIC50 (glucan synthase [2]) was 7.78.
With `CC1(COc2c(N3CCN(S(=O)(=O)Cc4cccc(N)c4)CC3)cnn(-c3cc(F)cc(F)c3)c2=O)CC1` [1529Z-40] the IC50 (glucan synthase [1]) was 0.055 µM and the pIC50 (glucan synthase [2]) was 7.26.
`CC1(COc2c(N3CCN(S(=O)(=O)Cc4ccc(C#N)cc4)CC3)cnn(-c3cccc(Cl)c3)c2=O)CC1` [1529Z-56] showed an IC50 (glucan synthase [1]) of 0.108 µM and a pIC50 (glucan synthase [2]) of 6.51.
In the case of `CC1CCC(Oc2c(N3CCN(S(=O)(=O)Cc4cccc(N)c4)CC3)cnn(-c3ccccc3)c2=O)C1` (stereo not drawn) [1529Z-70], the IC50 (glucan synthase [1]) was 0.153 µM and the pIC50 (glucan synthase [2]) was 6.87.
`Nc1ccc(CS(=O)(=O)N2CCN(c3cnn(-c4cccc(Cl)c4)c(=O)c3OCC3CCC3)CC2)cc1` [1529Z-73] gave an IC50 (glucan synthase [1]) of 0.349 µM and a pIC50 (glucan synthase [2]) of 6.78.
For `O=c1c(OCc2cccc(F)c2)c(N2CCN(S(=O)(=O)Cc3ccccc3)CC2)cnn1-c1cc(F)cc(F)c1` [1529Z-150], the IC50 (glucan synthase [1]) was 0.175 µM and the pIC50 (glucan synthase [2]) was 7.15.
Work on `CC(C)(C)COc1c(N2CCN(S(=O)(=O)Cc3cccc(N)c3)CC2)cnn(-c2cccc(Cl)c2)c1=O` [1529Z-151] yielded an IC50 (glucan synthase [1]) of 0.165 µM and a pIC50 (glucan synthase [2]) of 6.89.
For `CC(C)(C)COc1c(N2CCN(S(=O)(=O)Cc3ccc(N)cc3)CC2)cnn(-c2cc(F)cc(F)c2)c1=O` [1529Z-174], the IC50 (glucan synthase [1]) was 0.183 µM and the pIC50 (glucan synthase [2]) was 6.89.
`O=c1c(OCC2CC2(F)F)c(N2CCN(S(=O)(=O)Cc3ccccc3)CC2)cnn1-c1cc(F)cc(F)c1` (stereo not drawn) [1529Z-180] gave an IC50 (glucan synthase [1]) of 0.00543 µM and a pIC50 (glucan synthase [2]) of 8.74.
In the case of `CC1CC1COc1c(N2CCN(S(=O)(=O)Cc3ccccc3)CC2)cnn(-c2cc(F)cc(F)c2)c1=O` (stereo not drawn) [1529Z-182], the IC50 (glucan synthase [1]) was 0.0188 µM and the pIC50 (glucan synthase [2]) was 8.72.
With `O=c1c(OCC2CC2)c(N2CCN(S(=O)(=O)Cc3ccccc3)CC2)cnn1-c1cccc(Cl)c1` [1529Z-185] the IC50 (glucan synthase [1]) was 0.0388 µM and the pIC50 (glucan synthase [2]) was 7.93.
Work on `CC(C)(C)COc1c(N2CCN(S(=O)(=O)Cc3cccc(N)c3)CC2)cnn(-c2cc(F)cc(F)c2)c1=O` [1529Z-190] yielded an IC50 (glucan synthase [1]) of 0.219 µM and a pIC50 (glucan synthase [2]) of 7.04.
With `CC1(COc2c(N3CCN(S(=O)(=O)Cc4ccccc4)CC3)cnn(-c3cc(F)cc(F)c3)c2=O)CC1` [1529Z-191] the IC50 (glucan synthase [1]) was 0.0377 µM and the pIC50 (glucan synthase [2]) was 6.68.
With `O=c1c(OC2CCCC2)c(N2CCN(S(=O)(=O)NCc3ccccc3)CC2)cnn1-c1cc(F)cc(F)c1` [1629Z] the IC50 (glucan synthase [1]) was 0.0916 µM and the pIC50 (glucan synthase [2]) was 7.44.
With `COc1ccc(CNS(=O)(=O)N2CCN(c3cnn(-c4cc(F)cc(F)c4)c(=O)c3OCC3(C)CC3)CC2)cc1` [1633Z] the IC50 (glucan synthase [1]) was 0.0869 µM and the pIC50 (glucan synthase [2]) was 6.86.
`CC1(COc2c(N3CCN(S(=O)(=O)NCc4ccc(N)cc4)CC3)cnn(-c3cc(F)cc(F)c3)c2=O)CC1` [1634Z] gave an IC50 (glucan synthase [1]) of 0.196 µM and a pIC50 (glucan synthase [2]) of 6.52.
Work on `CC1(COc2c(N3CCN(S(=O)(=O)NCc4ccc(Cl)nc4)CC3)cnn(-c3cccc(Cl)c3)c2=O)CC1` [1675Z] yielded an IC50 (glucan synthase [1]) of 0.345 µM and a pIC50 (glucan synthase [2]) of 6.86.
`Cc1ccc(CNS(=O)(=O)N2CCN(c3cnn(-c4cccc(Cl)c4)c(=O)c3OCC3(C)CC3)CC2)cc1N` [1683Z] was tested, and the IC50 (glucan synthase [1]) was 0.122 µM and the pIC50 (glucan synthase [2]) was 6.86.
